Experimental data taken from US4480030A, “Tripeptide derivatives and their application in assaying enzymes” (Pentapharm A.G., priority 1980, dated 1984).
Square brackets hold non-standard residues; d marks the D form. Peptide text beside a SMILES is read from it. * marks the point of attachment. dAad = N[C@H](CCCC(=O)O)C(=O)O; pNA = O=[N+]([O-])c1ccc(N*)cc1; Cbz = O=C(OCc1ccccc1)*

Key:
[1] = molecular target: T1, bovine factor Xa (Bos taurus, UniProt P00743); assay: Activity of bovine factor Xa solution on chromogenic/fluorogenic substrate (split product H-R5 released); assay type: biochemical; details: substrate concentration 2 × 10^-4; TRIS-imidazole buffer pH 8.4, ionic strength 0.3, 37° C.; factor Xa preparation "Diagen"; value calculated for 1 ml of factor Xa solution
T1 construct: purchased Diagnostic Reagents Ltd., Thame, Great Britain factor Xa preparation "Diagen"
T1 sequence (P00743 234-492 limits assumed): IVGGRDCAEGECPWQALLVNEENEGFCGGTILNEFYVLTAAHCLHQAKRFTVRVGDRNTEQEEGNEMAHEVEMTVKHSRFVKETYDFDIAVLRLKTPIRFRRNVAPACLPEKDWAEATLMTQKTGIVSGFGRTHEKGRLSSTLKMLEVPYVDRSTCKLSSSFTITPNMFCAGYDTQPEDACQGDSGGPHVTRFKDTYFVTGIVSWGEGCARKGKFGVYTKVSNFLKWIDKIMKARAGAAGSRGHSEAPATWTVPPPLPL
T1 sequence (P00743 41-180 partner limits assumed): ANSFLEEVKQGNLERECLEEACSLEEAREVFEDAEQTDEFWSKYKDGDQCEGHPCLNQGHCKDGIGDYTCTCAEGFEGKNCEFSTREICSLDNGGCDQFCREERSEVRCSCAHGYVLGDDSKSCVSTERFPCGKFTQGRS
Experimental: (§1) The values of the factor Xa activity given in Table 4 were determined experimentally in the manner described hereinafter:
For determining the activity of bovine factor Xa 1.8 ml of TRIS-imidazole buffer having a pH of 8.4 and an ionic strength of 0.3 was well mixed at 37° C. with 0.025 ml of an aqueous solution of factor Xa preparation "Diagen" (furnisher: Diagnostic Reagents Ltd., Thame, Great Britain) obtained by dissolving the contents of one vial in 0.5 ml of water. To the mixture there was added 0.2 ml of a 2×10^-3 M aqueous solution of a substrate of the invention. Thereafter, the quantity of split product H--R^5 in nanomoles released per minute was determined, and the corresponding value of 1 ml of factor Xa solution was calculated.

[2] = molecular target: T2, human factor Xa (Homo sapiens, UniProt P00742); assay: Activity of factor Xa obtained by RVV activation of factor X in normal human blood plasma on substrate (split product H-R5 released); assay type: biochemical; details: substrate concentration 2 × 10^-4; TRIS-imidazole buffer pH 8.4, ionic strength 0.3, 37° C.; citrated plasma activated with Russel viper venom 75 seconds; value calculated for 1 ml of citrated plasma
T2 construct: from tissue
T2 sequence (P00742 235-488 limits assumed): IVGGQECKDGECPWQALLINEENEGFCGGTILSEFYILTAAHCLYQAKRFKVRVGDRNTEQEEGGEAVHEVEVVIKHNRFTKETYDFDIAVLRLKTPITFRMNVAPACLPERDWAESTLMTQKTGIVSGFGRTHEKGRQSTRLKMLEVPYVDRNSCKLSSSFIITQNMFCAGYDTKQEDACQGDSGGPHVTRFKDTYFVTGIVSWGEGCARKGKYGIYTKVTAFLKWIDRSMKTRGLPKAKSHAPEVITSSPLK
T2 sequence (P00742 41-179 partner limits assumed): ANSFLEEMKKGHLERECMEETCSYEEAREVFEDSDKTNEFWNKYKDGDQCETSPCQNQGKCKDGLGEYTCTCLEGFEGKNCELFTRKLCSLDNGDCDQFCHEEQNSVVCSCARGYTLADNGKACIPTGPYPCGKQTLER
Experimental: as §1
For determining the activity of human factor Xa 0.01 ml of normal citrated plasma was mixed with 0.20 ml of a solution of Russel viper venom in TRIS-imidazole buffer having a pH of 8.4 and an ionic strength of 0.3 and containing 15 mmoles of CaCl2 […]. The mixture was incubated for 75 seconds at 37° C. in order to activate factor X present in the plasma and convert it completely into factor Xa. To the incubate there was added first 1.40 ml of TRIS-imidazole buffer (pH 8.4, ionic strength 0.3) heated to 37° C. and then 0.40 ml of a 2×10^-3 M aqueous solution of a substrate of the invention. Thereafter, the quantity of split produce H--R^5 in nanomoles released per minute was determined, and the corresponding value for 1 ml of citrated plasma was calculated.

Molecule	Activity of 1 ml of aqueous solution of bovine factor Xa, expressed in nanomoles of split product H--R^5 released per minute [1]	Activity of factor Xa as obtained by activation of factor X in 1 ml of normal human blood plasma by means of RVV, expressed in nanomoles of split product H--R^5 released per minute [2]
2-(4-Cbo-- amino)-phenylacetyl-D-Nval--Gly--Arg--pNA.HBr [Example 53]	680 nanomoles of split product H--	510 nanomoles of split product H--
4-Aminomethyl-cyclohexyl-carbonyl-bonyl-D-Leu--Sar--Arg--pNA.2HBr [Example 43]	60 nanomoles of split product H--	30 nanomoles of split product H--
N=C(N)NCCC[C@H](NC(=O)CNC(=O)[C@@H](CCC(=O)O)NC(=O)OCc1ccccc1)C(=O)Nc1ccc([N+](=O)[O-])cc1 [Example 96, Cbo--D-Glu--Gly--Arg--pNA] (Cbz-[dE]-Gly-Arg-pNA)	830 nanomoles of split product H--	505 nanomoles of split product H--
N=C(N)NCCC[C@H](NC(=O)CNC(=O)[C@@H](CCCC(=O)O)NC(=O)OCc1ccccc1)C(=O)Nc1ccc([N+](=O)[O-])cc1 [Example 102, Cbo--D-Aadi--Gly--Arg--pNA] (Cbz-[dAad]-Gly-Arg-pNA)	1030 nanomoles of split product H--	905 nanomoles of split product H--
BOC--D-(α)-AOA--Gly--Arg--pNA.AcOH [Example 84]	2210 nanomoles of split product H--	1690 nanomoles of split product H--
Cbo--4-aminomethyl-cyclohexyl-carbonyl-D-Leu--176 Sar--Arg--pNA.HBr [Example 42]	30 nanomoles of split product H--	20 nanomoles of split product H--
